Measured values as given in patent publication US20100190187A1, “Screening Assays for Antagonists and Analyses of Cardiac Hypertrophy” (The Regents of the University of Michigan Office of …, priority 2006, published 2010).

target: T1, VDRtt (Rattus norvegicus, UniProt P13053); test: Competition with [3H] 1α,25(OH)2 vitamin D3 for binding to rat heart membrane preparations; details: radioligand binding experiments, FIGS. 6 and 7
T1 construct: from tissue; host or cells: rat heart ventricle, crude myocardial membranes (7,700-40,000 x g pellet)
T1 sequence (P13053 1-423): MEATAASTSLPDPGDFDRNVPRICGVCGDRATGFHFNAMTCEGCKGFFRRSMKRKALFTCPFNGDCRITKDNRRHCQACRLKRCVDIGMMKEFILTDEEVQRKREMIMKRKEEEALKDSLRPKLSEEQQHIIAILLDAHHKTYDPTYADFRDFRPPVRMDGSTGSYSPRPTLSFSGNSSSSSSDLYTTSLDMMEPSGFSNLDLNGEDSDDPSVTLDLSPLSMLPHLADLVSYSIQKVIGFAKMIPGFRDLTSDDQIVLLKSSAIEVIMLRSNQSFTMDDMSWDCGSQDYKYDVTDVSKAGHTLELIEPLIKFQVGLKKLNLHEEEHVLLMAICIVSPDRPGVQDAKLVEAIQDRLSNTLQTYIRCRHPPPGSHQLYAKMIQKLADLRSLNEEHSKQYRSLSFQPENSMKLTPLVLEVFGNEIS
Procedure: Crude myocardial membranes were prepared as follows: whole hearts were removed from three month old female Sprague-Dawley rats and were cannulated and perfused two times with 10 mls ice-cold DPBS then once with 3 mls of ice-cold TKED lysis buffer (50 mM Tris-HCl, 150 mM KCl, 1.5 mM EDTA, 10 mM dithiothreitol, pH7.4 and a 1/100 dilution of Sigma Protease Inhibitor Cocktail [P8340]). Ventricles were cut away from atria and connective tissue and then minced, transferred to a 13 ml round-bottom Sarstedt tube and washed two times in 10 mls TKED lysis buffer by spinning briefly at full speed in a clinical centrifuge then aspirating. Tissue was kept ice-cold as much as possible. Washed minced ventricle tissue was then homogenized on ice with a Tekmar Tissuemizer in 5 volumes (˜5 mls) of TKED lysis buffer using 10 strokes at setting 30 followed by 5 strokes at setting 50. The resulting homogenate was transferred to a 15 ml Corex tube and centrifuged in a Beckman JA-20 rotor at 8,000 rpm (7,700 g) for 15 minutes at 4° C. The supernatant was transferred to a new 15 ml Corex tube and centrifuged in a Beckman JA-20 rotor at 18,200 rpm (40,000 g) for 25 minutes at 4° C. The resulting membrane pellet was washed once in a few mls TKED lysis buffer, resuspended in 0.5 mls TKED lysis buffer then homogenized with 3 strokes of a 2 ml Wheaton Potter-Elvejhem tissue grinder.
Ligand binding assays to determine the ability of competitors or test compounds to compete with [^3H] […] 1α,25(OH)2 vitamin D3 (specific activity 176 Ci/mmol) and various concentrations of competitor or test compound. Nonspecific binding is determined in the presence of cold 1α,25(OH)2 Vitamin D3 (2 μM) for vehicle and each competitor or test compound. Assays are performed at room temperature for 60 minutes. Reactants are then filtered over glass fiber filters (Whatman GF-C) and washed three times with 5 mls ice-cold TKEDN binding buffer. […] Tritiated [^3H] 1α,25(OH)2 vitamin D3 can be obtained from G.E. Healthcare and dried using a nitrogen evaporator and resuspended in ethanol. 1α,25(OH)2 Vitamin D3 and competitors or test compounds can be obtained from Sigma-Aldrich and diluted in ethanol. Vitamin D5 was obtained from the University of Illinois and was diluted in ethanol.

| SMILES | binding of vitamin D analogs to VDRtt |
| --- | --- |
| C=C1CCC(O)C/C1=C\C=C1\CCCC2(C)C1CCC2C(C)CCC(O)C(C)(C)O (stereo not shown) [24,25 dihydroxyvitamin D3] | binds with various affinities |
| C=C1/C(=C\C=C2/CCC[C@]3(C)[C@@H]([C@H](C)CCC(O)C(C)(C)O)CC[C@@H]23)C[C@@H](O)CC1O (stereo partly shown) [1,24,25 trihydroxyvitamin D3] | binds with various affinities |
| C=C1CC[C@H](O)C/C1=C/C=C1\CCC[C@]2(C)[C@@H]([C@H](C)CCCC(C)(C)O)CC[C@@H]12 [25-hydroxyvitamin D3] | binds with various affinities |
| C=C1CC[C@H](O)C/C1=C/C=C1\CCC[C@]2(C)[C@@H]([C@H](C)CC[C@@H](CC)C(C)C)CC[C@@H]12 [Vitamin D5] | binds with various affinities |
